Assay results published in PMC12006963, “Application of Deuterium in an M1 Positive Allosteric Modulator Back-Up Program: The Discovery of VU6045422” (ACS Chemical Neuroscience, 2025).

Assays:
[1] = Brain to plasma ratio in rat; assay type: in vivo; details: male, Sprague-Dawley, brain and plasma, intravenous, 0.2 mg/kg, rat (SD); for Kp at 15 min: brain/plasma; for Kp uu at 15 min: unbound brain/unbound plasma
Experimental: where Qh (hepatic blood flow, mL/min/kg) is 21 (human) or 70 (rat).
LC/MS/MS Bioanalysis of Samples from Plasma Protein Binding and Intrinsic Clearance […]
Samples were analyzed on a Thermo Electron TSQ Quantum Ultra triple quad mass spectrometer (San Jose, CA) via electrospray ionization (ESI) with two Themo Electron Accella pumps (San Jose, CA), and a Leap Technologies CTC PAL autosampler (Carrboro, NC). Analytes were separated by gradient elution on a dual column system with two Thermo Hypersil Gold (2.1 x 30 mm, 1.9 µm) columns (San Jose, CA) thermostated at 40 °C. HPLC mobile phase A was 0.1% formic acid in water and mobile phase B was 0.1% formic acid in acetonitrile. The gradient started […]
for 0.2 min; returned to 10% B in 0.1 min. The total run time was 1.3 min and the HPLC flow rate was 0.8 mL/min. While pump 1 ran the gradient method, pump 2 equilibrated the alternate column isocratically at 10% B. Compound optimization, data collection, and processing was performed using Thermo Electron's QuickQuan software (v2.3) and Xcalibur (v2.0.7 SP1).
In vivo DMPK experimental:
Determination of brain to plasma ratio:
All animal study procedures were approved by the Institutional Animal Care and Use Committee and were conducted in accordance with the National Institutes of Health regulations of animal care covered in Principles of Laboratory Animal Care (National Institutes of Health). All rats were fasted overnight prior to testing.
For determination of the brain over plasma ratio (Kp), compounds were formulated in 8% ethanol, 32% PEG400 and 60% DMSO (v/v/v) and administered as a single 0.2 mg/kg IV dose (1 mL/kg) to male, Sprague Dawley rats (n = 1) via injection into a surgically-implanted jugular vein catheter. At 15 min post dosing, blood sample was collected into chilled, K2EDTA anticoagulant-fortified tube and immediately placed on wet ice. The blood sample was then centrifuged (1700 rcf, 5 minutes, 4 °C) to obtain plasma sample. At the same post-administration time point, whole brain sample was obtained by rapid dissection, rinsed with PBS, and immediately frozen in individual tissue collection box (dry ice). All brain and plasma samples were stored at -80 °C until […]
Sample Analysis: Concentrations in plasma and brain homogenates were quantified by liquid chromatography tandem mass spectrometry (LC-MS/MS). Whole brains were homogenized in 3 mL of 70:30 IPA:water in a mini bead beater for 3 min, and centrifuged at 3,500 g for 5 min. 5 uL of the supernatant was diluted in 15 uL of blank plasma for quantification of the analytes. Plasma samples were centrifuged at 3,500 g for 5 min. A standard curve was generated by diluting the analytes DMSO stocks with blank plasma to obtain a final concentration of 10,000 ng/ml followed by a serial dilution down to 0.5 ng/ml. Quality controls were generated by a serial dilution of the 5,000 ng/ml standard curve solution in blank plasma to obtain 3 concentrations of 500, 50, and 5 ng/ml. 20 uL of brain diluted in plasma, plasma, blank plasma, standard curve and QC samples were loaded in a V-bottom 96-well plate. 120 uL of acetonitrile containing 0.05 uM carbamazepine (internal standard) was added to each well and the plate was centrifuged at 3,500 g for 5 min. 60 uL of the supernatant of each well (protein free) was transferred to a new 96-well plate containing 60 uL of water. The plates were sealed for analysis by LC-MS/MS.
Plasma and brain tissue samples originating from in vivo studies were analyzed by electrospray ionization using an AB Sciex Q-TRAP 5500 (Foster City, CA) that was coupled to a Shimadzu LC-20AD pump (Columbia, MD) and a Leap Technologies CTC PAL auto-sampler (Carrboro, NC). Analytes were separated by gradient elution using a C18 column (3 x 50 mm, 3 mm; Fortis Technologies Ltd, Cheshire, UK) that was thermostated at 40 °C. HPLC mobile phase A was 0.1% formic acid in water (pH unadjusted); mobile phase B was 0.1% formic acid in acetonitrile (pH […]

[2] = target: T1, P-gp (MDR1) (Homo sapiens, UniProt P08183); experiment: MDCK-MDR1 monolayer permeability and efflux; assay type: in vitro ADME; parameters: dose or concentration left out as unconfirmed; details: dog; for Papp at 2 h: MDCK-MDR1; for efflux ratio at 2 h: MDCK-MDR1 efflux ratio, read-out: P-gp ER
T1 construct: host or cells: MDR1-MDCK cell monolayers
T1 sequence (P08183 whole entry): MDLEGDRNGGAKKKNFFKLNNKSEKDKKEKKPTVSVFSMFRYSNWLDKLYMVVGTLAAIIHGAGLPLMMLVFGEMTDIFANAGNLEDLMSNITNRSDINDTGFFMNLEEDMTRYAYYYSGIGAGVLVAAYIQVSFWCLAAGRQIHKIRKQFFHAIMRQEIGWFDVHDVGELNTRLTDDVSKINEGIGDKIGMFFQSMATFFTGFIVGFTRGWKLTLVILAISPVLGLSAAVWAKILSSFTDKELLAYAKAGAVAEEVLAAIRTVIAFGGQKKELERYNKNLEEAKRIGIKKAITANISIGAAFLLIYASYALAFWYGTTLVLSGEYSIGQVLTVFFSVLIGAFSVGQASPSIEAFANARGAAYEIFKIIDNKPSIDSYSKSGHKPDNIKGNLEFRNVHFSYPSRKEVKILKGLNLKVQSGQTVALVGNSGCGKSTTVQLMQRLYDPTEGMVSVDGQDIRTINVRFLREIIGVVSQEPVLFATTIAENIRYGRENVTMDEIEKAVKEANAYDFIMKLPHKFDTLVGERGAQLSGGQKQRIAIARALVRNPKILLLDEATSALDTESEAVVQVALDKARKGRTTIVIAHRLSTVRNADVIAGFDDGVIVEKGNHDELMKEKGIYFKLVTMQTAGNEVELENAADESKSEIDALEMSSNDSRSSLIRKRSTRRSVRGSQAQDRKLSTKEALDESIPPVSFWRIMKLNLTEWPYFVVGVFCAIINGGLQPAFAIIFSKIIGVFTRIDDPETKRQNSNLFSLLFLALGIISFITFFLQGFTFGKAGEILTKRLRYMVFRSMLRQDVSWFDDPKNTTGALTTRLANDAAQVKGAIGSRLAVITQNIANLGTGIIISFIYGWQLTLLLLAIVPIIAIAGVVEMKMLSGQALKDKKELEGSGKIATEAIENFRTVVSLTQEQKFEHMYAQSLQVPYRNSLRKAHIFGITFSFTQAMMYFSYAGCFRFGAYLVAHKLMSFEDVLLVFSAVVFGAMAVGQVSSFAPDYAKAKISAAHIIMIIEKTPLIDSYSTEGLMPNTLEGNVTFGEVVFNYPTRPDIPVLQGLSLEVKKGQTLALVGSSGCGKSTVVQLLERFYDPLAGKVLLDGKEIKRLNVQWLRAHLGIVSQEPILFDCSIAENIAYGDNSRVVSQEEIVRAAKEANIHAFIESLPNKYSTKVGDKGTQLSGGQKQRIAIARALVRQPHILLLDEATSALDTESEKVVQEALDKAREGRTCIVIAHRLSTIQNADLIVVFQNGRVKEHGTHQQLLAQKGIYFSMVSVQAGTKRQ
Experimental: page 9: Brain plasma concentration ratio (Kp) was calculated by dividing brain concentration by plasma concentration for each animal. Unbound brain to unbound plasma concentration ratio (Kp,uu) is calculated using the following formula: Kp,uu = (Brain ng/g x brain fu)/(plasma ng/ml x plasma fu). Pharmacokinetic profiles in rats following oral single escalating doses Single escalating oral dosing in Sprague-Dawley rats was performed at Frontage Laboratories according to their non-GLP Standard Operating Procedure and IACUC protocols. In short, compounds were formulated in 10% Tween 80 in water and dosed at 10 mg/kg. At different times, arterial blood was collected from a femoral artery catheter, and compound concentration was determined in plasma by LC-MS/MS following their non-GLP protocol. PK parameters were determined using Phoenix WinNonlin software (version 6.3). In-vitro determination of blood-brain barrier penetration potential Blood-brain barrier penetration was determined using MDR1-MDCK cell monolayers by Absorption Systems, following their protocol. In short, compounds were incubated […] final concentration on one side of the cell monolayer for 2 hours. Compounds concentration on either side of the monolayer was determined by LC-MS/MS and apparent permeability and efflux ratio were determined as described in Wang, Q. et al.1 Behavioral Manifestations of Seizure Activity To evaluate induction of behavioral manifestation of seizure activity, C57Bl/6 mice received administration of vehicle or 100 mg/kg M1 PAM 5. Compound was formulated in 30% Captisol (pH 7.0) at a concentration of 10 mg/mL and injected i.p. at 10 ml/kg (n = 4). Animals were monitored continuously and scored for behavioral manifestations of seizure activity at 5, 15, 30 min, and 1 h. Behavioral manifestations of seizures were scored using a modified Racine scoring system. Briefly, a score of 0 represents no behavior alterations; score 1, immobility, mouth and facial movements, or facial clonus; score 2, head nodding, tail extension; score 3, forelimb clonus, repetitive movements; score 4, rearing and tonic clonic seizure; and score 5, continuous rearing and falling, severe generalized tonic clonic seizure. Novel Object Recognition Task S9

SMILES | Kp at 15 min [1] | Kp uu at 15 min [1] | Papp at 2 h [2] | efflux ratio at 2 h [2]
[2H]C1([2H])c2ncccc2C(=O)N1Cc1c(F)cc(-c2cccc3nn(C)cc23)cc1F [compound 3] | 0.63 | 0.57 | 41.2 ×10⁻⁶ cm/s | 1.55
[2H]C1([2H])c2ncccc2C(=O)N1Cc1c(F)cc(-c2cccc3nn(C([2H])([2H])[2H])cc23)cc1F [compound 5] | 1.1 | 1.5 | 34.2 ×10⁻⁶ cm/s | 1.3
Cn1cc2c(-c3cc(F)c(CN4Cc5ncccc5C4=O)c(F)c3)cccc2n1 [compound 1] | 0.77 | 1.3 | 31.1 ×10⁻⁶ cm/s | 1.8
